Tested on: rat
Experiment: animal or person
Assay type: in vivo
Settings: ip

## Cc1cnc(NC(=O)C2=C(O)c3ccccc3S(=O)(=O)N2C)s1 [meloxicam]
Rattus norvegicus, 3 h, read-out: ED50 (95% CI), applied alone
  ED50: 141 mg/kg
rat, in vivo
  analgesic effect in words: dose-dependent analgesic effect
